Values joined by “and” are separate entries in the source; they are usually repeats but may differ in a detail not shown here. Equal entries are not always repeated. Toxic doses and inconclusive results are not listed.
Test system: BDF1 mice, Lewis lung carcinoma iv, survival T/C
Assay: NCI In Vivo Anticancer Drug Screen. Data for tumor model Lewis Lung Carcinoma (intravenous) in B6D2F1 (BDF1) mice
Conditions: endpoint: median survival time, higher = longer survival
Description: The antitumor activity of compounds was measured in mice bearing transplantable tumors. Survival or tumor size were measured and the results are expressed as the measurement made in the treated group (T) divided by the measurement made in the vehicle treated control group (C). The tumor model used in this assay is Lewis Lung Carcinoma (intravenous) in B6D2F1 (BDF1) mice

[1] = dose: 6.25 mg/kg/injection, schedule: Q01DX009 (ip), vehicle: saline
[2] = dose: 12.5 mg/kg/injection, schedule: Q01DX009 (ip), vehicle: saline
[3] = dose: 25.0 mg/kg/injection, schedule: Q01DX009 (ip), vehicle: saline
[4] = dose: 25.0 mg/kg/injection, schedule: Q01DX009 (ip), vehicle: water
[5] = dose: 50.0 mg/kg/injection, schedule: Q01DX009 (ip), vehicle: water
[6] = dose: 100.0 mg/kg/injection, schedule: Q01DX009 (ip), vehicle: water
[7] = dose: 3.12 mg/kg/injection, schedule: Q01DX009 (ip), vehicle: saline with Tween-80
[8] = dose: 6.25 mg/kg/injection, schedule: Q01DX009 (ip), vehicle: saline with Tween-80
[9] = dose: 12.5 mg/kg/injection, schedule: Q01DX009 (ip), vehicle: saline with Tween-80
[10] = dose: 25.0 mg/kg/injection, schedule: Q01DX009 (ip), vehicle: saline with Tween-80
[11] = dose: 50.0 mg/kg/injection, schedule: Q01DX009 (ip), vehicle: saline
[12] = dose: 100.0 mg/kg/injection, schedule: Q01DX009 (ip), vehicle: saline with Tween-80
[13] = dose: 100.0 mg/kg/injection, schedule: Q01DX009 (ip), vehicle: saline
[14] = dose: 200.0 mg/kg/injection, schedule: Q01DX009 (ip), vehicle: saline with Tween-80
[15] = dose: 50.0 mg/kg/injection, schedule: Q01DX009 (ip), vehicle: saline with Tween-80

CN(Cc1cnc2nc(N)nc(N)c2n1)c1ccc(C(=O)N[C@@H](CCC(=O)O)C(=O)O)cc1
T/C (dose: 0.23 mg/kg/injection, schedule: Q01DX021 (ip), vehicle: sodium bicarbonate): 105 % of control | T/C (dose: 0.25 mg/kg/injection, schedule: Q01DX009 (ip), vehicle: sodium bicarbonate): 103 % of control | T/C (dose: 0.39 mg/kg/injection, schedule: Q01DX009 (ip), vehicle: sodium bicarbonate): 102 % of control | T/C (dose: 0.39 mg/kg/injection, schedule: Q01DX021 (ip), vehicle: sodium bicarbonate): 102 % of control | T/C (dose: 0.5 mg/kg/injection, schedule: Q01DX009 (ip), vehicle: sodium bicarbonate): 121 % of control | T/C (dose: 0.65 mg/kg/injection, schedule: Q01DX009 (ip), vehicle: sodium bicarbonate): 100 % of control | T/C (dose: 0.65 mg/kg/injection, schedule: Q01DX021 (ip), vehicle: sodium bicarbonate): 105 % of control | T/C (dose: 1.0 mg/kg/injection, schedule: Q01DX009 (ip), vehicle: sodium bicarbonate): 107 % of control and 114 % of control and 118 % of control | T/C (dose: 1.08 mg/kg/injection, schedule: Q01DX009 (ip), vehicle: sodium bicarbonate): 95 % of control | T/C (dose: 1.08 mg/kg/injection, schedule: Q01DX021 (ip), vehicle: sodium bicarbonate): 114 % of control | T/C (dose: 1.8 mg/kg/injection, schedule: Q01DX009 (ip), vehicle: sodium bicarbonate): 110 % of control | T/C (dose: 2.0 mg/kg/injection, schedule: Q01DX009 (ip), vehicle: sodium bicarbonate): 96 % of control and 114 % of control | T/C (dose: 2.5 mg/kg/injection, schedule: Q04DX003 (ip), vehicle: sodium bicarbonate): 90 % of control | T/C (dose: 3.0 mg/kg/injection, schedule: Q01DX009 (ip), vehicle: sodium bicarbonate): 114 % of control | T/C (dose: 3.9 mg/kg/injection, schedule: Q04DX006 (ip), vehicle: sodium bicarbonate): 96 % of control | T/C (dose: 4.0 mg/kg/injection, schedule: Q01DX009 (ip), vehicle: sodium bicarbonate): 96 % of control | T/C (dose: 5.0 mg/kg/injection, schedule: Q04DX003 (ip), vehicle: sodium bicarbonate): 103 % of control | T/C (dose: 6.5 mg/kg/injection, schedule: Q04DX003 (ip), vehicle: sodium bicarbonate): 100 % of control and 103 % of control | T/C (dose: 6.5 mg/kg/injection, schedule: Q04DX003 (iv), vehicle: sodium bicarbonate): 107 % of control | T/C (dose: 6.5 mg/kg/injection, schedule: Q04DX006 (ip), vehicle: sodium bicarbonate): 109 % of control | T/C (dose: 10.0 mg/kg/injection, schedule: Q04DX003 (ip), vehicle: sodium bicarbonate): 108 % of control | T/C (dose: 10.8 mg/kg/injection, schedule: Q04DX003 (ip), vehicle: sodium bicarbonate): 119 % of control and 123 % of control | T/C (dose: 10.8 mg/kg/injection, schedule: Q04DX003 (iv), vehicle: sodium bicarbonate): 116 % of control | T/C (dose: 10.8 mg/kg/injection, schedule: Q04DX006 (ip), vehicle: sodium bicarbonate): 120 % of control | T/C (dose: 18.0 mg/kg/injection, schedule: Q04DX003 (iv), vehicle: sodium bicarbonate): 120 % of control | T/C (dose: 20.0 mg/kg/injection, schedule: Q04DX003 (ip), vehicle: sodium bicarbonate): 123 % of control | T/C (dose: 30.0 mg/kg/injection, schedule: Q04DX006 (ip), vehicle: sodium bicarbonate): 95 % of control

NC(=O)c1ncn2c(=O)n(CCCl)nnc12
T/C (dose: 3.12 mg/kg/injection, schedule: Q01DX009 (ip), vehicle: saline): 103 % of control | T/C [1]: 120 % of control | T/C [2]: 159 % of control | T/C [3]: 298 % of control

C/C=C/C1=CC(=O)C(O)C1O (stereo not given)
T/C [4]: 103 % of control | T/C [5]: 99 % of control | T/C [6]: 101 % of control

COC(C(=O)C(O)C(C)O)C1CC2C=C3C=C(OC4CC(OC5CC(O)C(OC)C(C)O5)C(OC(C)=O)C(C)O4)C(C)C(=O)C3=C(O)C2=C(O)C1OC1CC(OC2CC(OC3CC(C)(O)C(O)C(C)O3)C(O)C(C)O2)C(O)C(C)O1 (stereo not given)
T/C (dose: 0.06 mg/kg/injection, schedule: Q01DX009 (ip), vehicle: saline with Tween-80): 96 % of control | T/C (dose: 0.13 mg/kg/injection, schedule: Q01DX009 (ip), vehicle: saline with Tween-80): 101 % of control | T/C (dose: 0.25 mg/kg/injection, schedule: Q01DX009 (ip), vehicle: saline with Tween-80): 114 % of control | T/C (dose: 0.5 mg/kg/injection, schedule: Q01DX009 (ip), vehicle: saline with Tween-80): 104 % of control | T/C (dose: 1.0 mg/kg/injection, schedule: Q01DX009 (ip), vehicle: saline with Tween-80): 101 % of control | T/C (dose: 2.0 mg/kg/injection, schedule: Q01DX009 (ip), vehicle: saline with Tween-80): 92 % of control

CCC/C=C/C=C/C(=O)OC1/C(=C/C(=O)OC)CC2CC(C(C)O)OC(=O)CC(O)CC3CC(OC(C)=O)C(C)(C)C(O)(CC4C/C(=C/C(=O)OC)CC(/C=C/C(C)(C)C1(O)O2)O4)O3 (stereo not given)
T/C (dose: 18.75 micrograms/kg/injection, schedule: Q01DX009 (ip), vehicle: saline + alcohol): 90 % of control | T/C (dose: 37.5 micrograms/kg/injection, schedule: Q01DX009 (ip), vehicle: saline + alcohol): 98 % of control | T/C (dose: 75.0 micrograms/kg/injection, schedule: Q01DX009 (ip), vehicle: saline + alcohol): 107 % of control

O=C(NO)c1ccc(O)c(O)c1
T/C [4]: 100 % of control | T/C [5]: 100 % of control | T/C [6]: 100 % of control | T/C (dose: 200.0 mg/kg/injection, schedule: Q01DX009 (ip), vehicle: water): 108 % of control | T/C (dose: 300.0 mg/kg/injection, schedule: Q01DX009 (ip), vehicle: suspension in saline): 117 % of control | T/C (dose: 400.0 mg/kg/injection, schedule: Q01DX009 (ip), vehicle: suspension in saline): 114 % of control | T/C (dose: 500.0 mg/kg/injection, schedule: Q01DX009 (ip), vehicle: suspension in saline): 122 % of control

Cc1cc2cc3cc(C)c(N)cc3nc2cc1N
T/C [7]: 102 % of control | T/C [8]: 104 % of control | T/C [9]: 100 % of control | T/C [10]: 105 % of control

CCCCCc1cc(O)c2c(c1)OC(C)(C)[C@@H]1CCC(C)=C[C@@H]21
T/C (dose: 200.0 mg/kg/injection, schedule: Q01DX009 (ip), vehicle: other): 89 % of control | T/C (dose: 800.0 mg/kg/injection, schedule: Q01DX009 (ip), vehicle: other): 88 % of control

CO[C@@]12[C@H](COC(N)=O)C3=C(C(=O)C(C)=C(N)C3=O)N1C[C@@H]1N[C@@H]12
T/C (dose: 0.12 mg/kg/injection, schedule: Q01DX009 (ip), vehicle: saline): 101 % of control | T/C (dose: 0.25 mg/kg/injection, schedule: Q01DX009 (ip), vehicle: saline): 105 % of control | T/C (dose: 0.5 mg/kg/injection, schedule: Q01DX009 (ip), vehicle: saline): 98 % of control | T/C (dose: 1.0 mg/kg/injection, schedule: Q01DX009 (ip), vehicle: saline): 101 % of control

Nc1ncnc2c1cnn2Cc1ccc(Cl)cc1
T/C [3]: 112 % of control | T/C [11]: 98 % of control | T/C [12]: 158 % of control | T/C [13]: 98 % of control | T/C [14]: 109 % of control

COc1nc(=O)n(C2C=CC(=O)O2)cc1F (stereo not given)
T/C [1]: 97 % of control | T/C [2]: 102 % of control | T/C [3]: 96 % of control | T/C [11]: 102 % of control | T/C [13]: 97 % of control

CCCC(=O)O
T/C [2]: 93 % of control | T/C [3]: 104 % of control | T/C [11]: 95 % of control | T/C [13]: 112 % of control

CC(=O)O[C@@H]1[C@@H](O)C2=C3[C@]4(C)[C@@H]1C(C)(C)C(=O)C[C@@H]4[C@]3(O)[C@H](OC(C)=O)[C@@]1(C[C@@H]1C)C2=O
T/C [7]: 97 % of control | T/C [8]: 195 % of control | T/C [9]: 162 % of control

COc1ccc2nonc2c1
T/C [10]: 191 % of control | T/C [15]: 109 % of control | T/C [12]: 101 % of control | T/C [14]: 103 % of control

COc1ccc(C(=O)c2no[n+]([O-])c2C(=O)c2ccc(OC)cc2)cc1
T/C [9]: 104 % of control | T/C [10]: 102 % of control | T/C [15]: 95 % of control | T/C [12]: 98 % of control | T/C [14]: 100 % of control | T/C (dose: 400.0 mg/kg/injection, schedule: Q01DX009 (ip), vehicle: saline with Tween-80): 111 % of control

Cc1ccc(N=NN(C)C)cc1
T/C [10]: 100 % of control | T/C [15]: 105 % of control | T/C [12]: 105 % of control

C=CC(=O)NCNC(=O)C=C
T/C [1]: 90 % of control | T/C [2]: 102 % of control and 113 % of control | T/C [3]: 98 % of control and 104 % of control | T/C [11]: 97 % of control and 98 % of control | T/C [13]: 101 % of control and 110 % of control

From PubChem BioAssay AID274 (DTP/NCI, 2004)
